Test system: MV-4-11 cells
Test: Gene expression microarray analysis (Affymetrix PrimeView) and GSEA
Assay type: cell-based, human
Design: RFU PODN (11730768_x_at) / Fold change /veh PODN (11730768_x_at) / RFU LINC00158 (11744669_a_at) / Fold change /veh LINC00158 (11744669_a_at) / RFU DUSP10 (11751237_a_at) / Fold change /veh DUSP10 (11751237_a_at) / RFU ID3 (11757404_x_at) / Fold change /veh ID3 (11757404_x_at) / RFU PLEKHG5 (11737974_s_at) / Fold change /veh PLEKHG5 (11737974_s_at) / RFU LRRC4B (11730491_at) / Fold change /veh LRRC4B (11730491_at) / RFU GIMAP4 (11747438_a_at) / Fold change /veh GIMAP4 (11747438_a_at) / RFU KRT8 (11758183_x_at) / Fold change /veh KRT8 (11758183_x_at) / RFU CNN1 (11734310_a_at) / Fold change /veh CNN1 (11734310_a_at) / RFU VPS37D (11726825_at) / Fold change /veh VPS37D (11726825_at) / RFU C10orf10 (11716522_x_at) / Fold change /veh C10orf10 (11716522_x_at) / RFU KIR2DL2 /// KIR2DL4 /// KIR2DL5A /// KIR2DL5B /// KIR2DS1 /// KIR2DS2 /// KIR2DS3 /// KIR2DS4 /// KIR3DL3 /// KIR3DL3 /// KIR3DS1 (11738374_at) / Fold change /veh KIR2DL2 /// KIR2DL4 /// KIR2DL5A /// KIR2DL5B /// KIR2DS1 /// KIR2DS2 /// KIR2DS3 /// KIR2DS4 /// KIR3DL3 /// KIR3DL3 /// KIR3DS1 (11738374_at) / RFU C1QL1 (11718748_at) / Fold change /veh C1QL1 (11718748_at) / RFU TMPRSS4 (11747572_a_at) / Fold change /veh TMPRSS4 (11747572_a_at) / RFU HAMP (11756126_x_at) / Fold change /veh HAMP (11756126_x_at) / RFU RNFT2 (11725882_a_at) / Fold change /veh RNFT2 (11725882_a_at) / RFU NR4A2 (11747474_a_at) / Fold change /veh NR4A2 (11747474_a_at) / RFU ABCC12 (11746883_a_at) / Fold change /veh ABCC12 (11746883_a_at) / RFU TMEM136 (11760407_x_at) / Fold change /veh TMEM136 (11760407_x_at) / RFU CLDN22 /// WWC2 (11732394_at) / Fold change /veh CLDN22 /// WWC2 (11732394_at) / RFU HLA-DPB1 (11760878_x_at) / Fold change /veh HLA-DPB1 (11760878_x_at) / RFU SPINT1 (11716480_a_at) / Fold change /veh SPINT1 (11716480_a_at) / RFU GAP43 (11754022_s_at) / Fold change /veh GAP43 (11754022_s_at) / RFU A4GNT (11735810_at) / Fold change /veh A4GNT (11735810_at) / RFU PRB3 (11715151_x_at) / Fold change /veh PRB3 (11715151_x_at) / RFU TUBB4B (11761932_at) / Fold change /veh TUBB4B (11761932_at) / RFU CAPN14 (11732068_a_at) / Fold change /veh CAPN14 (11732068_a_at) / RFU TMCC2 (11721928_a_at) / Fold change /veh TMCC2 (11721928_a_at) / RFU IRGQ (11745062_a_at) / Fold change /veh IRGQ (11745062_a_at) / RFU FAM174B (11720279_a_at) / Fold change /veh FAM174B (11720279_a_at) / RFU TMPRSS4 (11748680_a_at) / Fold change /veh TMPRSS4 (11748680_a_at) / RFU FAM212B (11763350_a_at) / Fold change /veh FAM212B (11763350_a_at) / RFU PLEKHG5 (11743358_a_at) / Fold change /veh PLEKHG5 (11743358_a_at) / RFU ZSCAN30 (11745921_a_at) / Fold change /veh ZSCAN30 (11745921_a_at) / RFU CMKLR1 (11741424_a_at) / Fold change /veh CMKLR1 (11741424_a_at) / RFU LOC101060620 /// MAPK8IP1 (11723275_at) / Fold change /veh LOC101060620 /// MAPK8IP1 (11723275_at) / RFU SPTSSB (11747773_x_at) / Fold change /veh SPTSSB (11747773_x_at) / RFU PRSS12 (11739890_at) / Fold change /veh PRSS12 (11739890_at) / RFU BIN1 (11741810_x_at) / Fold change /veh BIN1 (11741810_x_at) / RFU WNT11 (11732464_a_at) / Fold change /veh WNT11 (11732464_a_at) / RFU C10orf10 (11716521_a_at) / Fold change /veh C10orf10 (11716521_a_at) / RFU C5orf56 (11738089_at) / Fold change /veh C5orf56 (11738089_at) / RFU CYB561 (11721691_x_at) / Fold change /veh CYB561 (11721691_x_at) / RFU ANKRD19P (11752326_a_at) / Fold change /veh ANKRD19P (11752326_a_at) / RFU OR2T12 /// OR2T33 /// OR2T8 (11738714_s_at) / Fold change /veh OR2T12 /// OR2T33 /// OR2T8 (11738714_s_at) / RFU VCAN (11748164_a_at) / Fold change /veh VCAN (11748164_a_at) / RFU JSRP1 (11732532_at) / Fold change /veh JSRP1 (11732532_at) / RFU KRTAP10-11 (11738290_x_at) / Fold change /veh KRTAP10-11 (11738290_x_at) / RFU MYO3A (11730013_a_at) / Fold change /veh MYO3A (11730013_a_at) / RFU EBF3 (11725865_a_at) / Fold change /veh EBF3 (11725865_a_at) / RFU CAMK2N1 (11719241_x_at) / Fold change /veh CAMK2N1 (11719241_x_at) / RFU C5orf56 (11738088_a_at) / Fold change /veh C5orf56 (11738088_a_at) / RFU OLFML3 (11715873_a_at) / Fold change /veh OLFML3 (11715873_a_at) / RFU LOC100653217 /// NTM (11731650_a_at) / Fold change /veh LOC100653217 /// NTM (11731650_a_at) / RFU MAPK11 (11762145_a_at) / Fold change /veh MAPK11 (11762145_a_at) / RFU FIZ1 (11724087_x_at) / Fold change /veh FIZ1 (11724087_x_at) / RFU OASL (11726364_x_at) / Fold change /veh OASL (11726364_x_at) / RFU SOX15 (11748057_x_at) / Fold change /veh SOX15 (11748057_x_at) / RFU CD79A (11719716_a_at) / Fold change /veh CD79A (11719716_a_at) / RFU HIST1H1D (11736915_at) / Fold change /veh HIST1H1D (11736915_at) / RFU CASKIN2 (11723855_a_at) / Fold change /veh CASKIN2 (11723855_a_at) / RFU LOC730098 (11760151_x_at) / Fold change /veh LOC730098 (11760151_x_at) / RFU OR4N2 (11742367_at) / Fold change /veh OR4N2 (11742367_at) / RFU PRRT2 (11749266_a_at) / Fold change /veh PRRT2 (11749266_a_at) / RFU SNX32 (11753110_a_at) / Fold change /veh SNX32 (11753110_a_at) / RFU CDHR5 (11726645_a_at) / Fold change /veh CDHR5 (11726645_a_at) / RFU RCAN1 (11760418_a_at) / Fold change /veh RCAN1 (11760418_a_at) / RFU FAM167A (11723789_a_at) / Fold change /veh FAM167A (11723789_a_at) / RFU FAM26E (11764081_at) / Fold change /veh FAM26E (11764081_at) / RFU ISYNA1 (11749810_s_at) / Fold change /veh ISYNA1 (11749810_s_at) / RFU ACY1 (11761880_at) / Fold change /veh ACY1 (11761880_at) / RFU 11764098_at / Fold change /veh 11764098_at / RFU SAMD14 (11745864_x_at) / Fold change /veh SAMD14 (11745864_x_at) / RFU NPB (11741838_a_at) / Fold change /veh NPB (11741838_a_at) / RFU TMPRSS6 (11731388_a_at) / Fold change /veh TMPRSS6 (11731388_a_at) / RFU KRTAP10-2 (11738614_at) / Fold change /veh KRTAP10-2 (11738614_at) / RFU ARHGAP8 /// PRR5-ARHGAP8 (11727945_x_at) / Fold change /veh ARHGAP8 /// PRR5-ARHGAP8 (11727945_x_at) / RFU KRTAP5-7 /// NADSYN1 (11734609_at) / Fold change /veh KRTAP5-7 /// NADSYN1 (11734609_at) / RFU RASL12 (11751679_a_at) / Fold change /veh RASL12 (11751679_a_at) / RFU CDKN2B (11736163_a_at) / Fold change /veh CDKN2B (11736163_a_at) / RFU PRF1 (11729649_at) / Fold change /veh PRF1 (11729649_at) / RFU, ZNF638 /// ZNF638-IT1 / Fold change vs veh, ZNF638 /// ZNF638-IT1 / RFU, PANK3 / Fold change vs veh, PANK3 / RFU, SH3YL1 / Fold change vs veh, SH3YL1 / RFU, ZEB2 / Fold change vs veh, ZEB2 / RFU, NRIP1 / Fold change vs veh, NRIP1 / RFU, PTTG1IP / Fold change vs veh, PTTG1IP / RFU, CAPN2 / Fold change vs veh, CAPN2 / RFU, MED14 / Fold change vs veh, MED14 / RFU, SNORA58 / Fold change vs veh, SNORA58 / RFU, C1orf63 / Fold change vs veh, C1orf63 / RFU, LRRFIP1 / Fold change vs veh, LRRFIP1 / RFU, NDUFAF7 / Fold change vs veh, NDUFAF7 / RFU, SLC12A2 / Fold change vs veh, SLC12A2 / RFU, IBTK / Fold change vs veh, IBTK / RFU, ESF1 / Fold change vs veh, ESF1 / Fold change vs veh, TMEM50B / RFU, TAOK1 / Fold change vs veh, TAOK1 / RFU, ACBD3 / Fold change vs veh, ACBD3 / RFU, TMA16 / Fold change vs veh, TMA16 / RFU, RWDD3 / Fold change vs veh, RWDD3 / RFU, BCAT1 / Fold change vs veh, BCAT1 / RFU, EDEM3 / Fold change vs veh, EDEM3 / RFU, TMEM33 / Fold change vs veh, TMEM33 / RFU, WDR75 / Fold change vs veh, WDR75 / RFU, AHCTF1 / Fold change vs veh, AHCTF1 / RFU, TFRC / Fold change vs veh, TFRC / RFU, ZDHHC17 / Fold change vs veh, ZDHHC17 / RFU, NOM1 / Fold change vs veh, NOM1 / RFU, ARL8B / Fold change vs veh, ARL8B / RFU, ZBTB11 / Fold change vs veh, ZBTB11 / RFU, TAMM41 / Fold change vs veh, TAMM41 / RFU, KIAA1704 /// LOC100996395 / Fold change vs veh, KIAA1704 /// LOC100996395 / RFU, ING1 / Fold change vs veh, ING1 / RFU, TRMT61B / Fold change vs veh, TRMT61B / RFU, FUBP3 / Fold change vs veh, FUBP3 / RFU, TP53 / Fold change vs veh, TP53 / RFU, TNKS2 / Fold change vs veh, TNKS2 / RFU, ZFP14 / Fold change vs veh, ZFP14 / RFU, ACTR2 / Fold change vs veh, ACTR2 / RFU, PPP3R1 / Fold change vs veh, PPP3R1 / RFU, PIK3R1 / Fold change vs veh, PIK3R1 / RFU, HNRNPA1 / Fold change vs veh, HNRNPA1 / RFU, RNF170 / Fold change vs veh, RNF170 / RFU, ZNF28 / Fold change vs veh, ZNF28 / RFU, RNGTT / Fold change vs veh, RNGTT / RFU, OGT / Fold change vs veh, OGT / RFU, BRD1 / Fold change vs veh, BRD1 / RFU, MARS / Fold change vs veh, MARS / RFU, ZNF655 / Fold change vs veh, ZNF655 / RFU, FAHD1 / Fold change vs veh, FAHD1 / RFU, BDP1 / Fold change vs veh, BDP1 / RFU, LRRCC1 / Fold change vs veh, LRRCC1 / RFU, ARID1A / Fold change vs veh, ARID1A / RFU, ZNF146 / Fold change vs veh, ZNF146 / RFU, ZNF330 / Fold change vs veh, ZNF330 / RFU, GPN3 / Fold change vs veh, GPN3 / RFU, C9orf123 / Fold change vs veh, C9orf123 / RFU, N4BP2L2 / Fold change vs veh, N4BP2L2 / RFU, ARFIP1 / Fold change vs veh, ARFIP1 / RFU, FAM179B / Fold change vs veh, FAM179B / RFU, BCL10 / Fold change vs veh, BCL10 / RFU, UHRF1BP1L / Fold change vs veh, UHRF1BP1L / RFU, BET1 / Fold change vs veh, BET1 / RFU, CNOT2 / Fold change vs veh, CNOT2 / RFU, ZNF268 / Fold change vs veh, ZNF268 / Fold change vs veh, ZNF507 / RFU, DGCR2 / Fold change vs veh, DGCR2 / RFU, WDSUB1 / Fold change vs veh, WDSUB1 / Fold change vs veh, HSP90B1 /// MIR3652 / RFU, ADSS / Fold change vs veh, ADSS / RFU, GK / Fold change vs veh, GK / RFU, ZNF148 / Fold change vs veh, ZNF148 / RFU, TAF9 / Fold change vs veh, TAF9 / RFU, SLC1A5 / Fold change vs veh, SLC1A5 / RFU, SLMO2 / Fold change vs veh, SLMO2 / RFU, ABCC4 / Fold change vs veh, ABCC4 / RFU, LOC101060439 /// RAP1B / Fold change vs veh, LOC101060439 /// RAP1B / RFU, RFX7 / Fold change vs veh, RFX7 / RFU, GTPBP10 / Fold change vs veh, GTPBP10 / RFU, CNEP1R1 / Fold change vs veh, CNEP1R1 / RFU, BIVM-ERCC5 /// ERCC5 / Fold change vs veh, BIVM-ERCC5 /// ERCC5 / RFU, ILF3 / Fold change vs veh, ILF3 / RFU 11762660_at / Fold change /veh 11762660_at / RFU VCAN (11757783_s_at) / Fold change /veh VCAN (11757783_s_at) / RFU DDX43 (11728927_at) / Fold change /veh DDX43 (11728927_at) / RFU KRT8 (11758188_x_at) / Fold change /veh KRT8 (11758188_x_at) / RFU NKD1 (11759106_at) / Fold change /veh NKD1 (11759106_at) / RFU SRD5A1 (11742802_a_at) / Fold change /veh SRD5A1 (11742802_a_at) / RFU TPSAB1 /// TPSB2 (11721975_s_at) / Fold change /veh TPSAB1 /// TPSB2 (11721975_s_at) / RFU GSTM3 (11746129_a_at) / Fold change /veh GSTM3 (11746129_a_at) / RFU IL23R (11737362_x_at) / Fold change /veh IL23R (11737362_x_at) / RFU TMEM51 (11727254_a_at) / Fold change /veh TMEM51 (11727254_a_at) / RFU PIWIL2 (11732686_x_at) / Fold change /veh PIWIL2 (11732686_x_at) / RFU ORM1 (11744905_x_at) / Fold change /veh ORM1 (11744905_x_at) / RFU CCDC152 (11743942_at) / Fold change /veh CCDC152 (11743942_at) / RFU ECM1 (11717891_a_at) / Fold change /veh ECM1 (11717891_a_at) / RFU IL23R (11748794_a_at) / Fold change /veh IL23R (11748794_a_at) / RFU TNFAIP8L3 (11732012_x_at) / Fold change /veh TNFAIP8L3 (11732012_x_at) / RFU MBOAT4 (11741988_at) / Fold change /veh MBOAT4 (11741988_at) / RFU 11764193_at / Fold change /veh 11764193_at / RFU TMEM53 (11763286_at) / Fold change /veh TMEM53 (11763286_at) / RFU MAGEB2 (11727129_at) / Fold change /veh MAGEB2 (11727129_at) / RFU TMEM200A (11744735_a_at) / Fold change /veh TMEM200A (11744735_a_at) / RFU CCDC152 (11751479_a_at) / Fold change /veh CCDC152 (11751479_a_at) / RFU FAM211A (11726209_a_at) / Fold change /veh FAM211A (11726209_a_at) / RFU RGS16 (11746705_a_at) / Fold change /veh RGS16 (11746705_a_at) / RFU VCAN (11755009_s_at) / Fold change /veh VCAN (11755009_s_at) / RFU RHOB (11743442_s_at) / Fold change /veh RHOB (11743442_s_at) / RFU RGS16 (11720943_a_at) / Fold change /veh RGS16 (11720943_a_at) / RFU RGS16 (11720944_at) / Fold change /veh RGS16 (11720944_at) / RFU, VPS4B / Fold change vs veh, VPS4B / RFU, CREB1 / Fold change vs veh, CREB1 / RFU, DNAJC13 / Fold change vs veh, DNAJC13 / RFU, GNAQ / Fold change vs veh, GNAQ / RFU, CDK5R1 / Fold change vs veh, CDK5R1 / RFU, ZRANB3 / Fold change vs veh, ZRANB3 / RFU, CUL4A / Fold change vs veh, CUL4A / RFU, CCNY / Fold change vs veh, CCNY / RFU, UFL1 / Fold change vs veh, UFL1 / RFU, COG3 / Fold change vs veh, COG3 / RFU, DIAPH2 / Fold change vs veh, DIAPH2 / RFU, SKA2 / Fold change vs veh, SKA2 / RFU, AFF3 / Fold change vs veh, AFF3 / RFU, LMF1 / Fold change vs veh, LMF1 / RFU, IPO11 / Fold change vs veh, IPO11 / RFU, DFFB / Fold change vs veh, DFFB / RFU, FOXP1 / Fold change vs veh, FOXP1 / RFU, CARD8 / Fold change vs veh, CARD8 / RFU, STRN3 / Fold change vs veh, STRN3 / RFU, ADK / Fold change vs veh, ADK / RFU, RASSF2 / Fold change vs veh, RASSF2 / RFU, WIPF1 / Fold change vs veh, WIPF1 / RFU, LARP1B / Fold change vs veh, LARP1B / RFU, RASA1 / Fold change vs veh, RASA1 / RFU, RB1 / Fold change vs veh, RB1 / RFU, PPFIA1 / Fold change vs veh, PPFIA1 / RFU, MAT2A / Fold change vs veh, MAT2A / RFU, CCT5 / Fold change vs veh, CCT5 / RFU, WDR92 / Fold change vs veh, WDR92 / RFU, CUX1 / Fold change vs veh, CUX1 / RFU, TTC7A / Fold change vs veh, TTC7A / RFU, TMEM135 / Fold change vs veh, TMEM135 / RFU, DEPTOR / Fold change vs veh, DEPTOR / RFU, CPM / Fold change vs veh, CPM / RFU, DNAJB6 / Fold change vs veh, DNAJB6 / RFU, CACNA2D3 / Fold change vs veh, CACNA2D3 / RFU, DTX4 / Fold change vs veh, DTX4 / RFU, TFCP2 / Fold change vs veh, TFCP2 / RFU, GMCL1 /// GMCL1P1 / Fold change vs veh, GMCL1 /// GMCL1P1 / RFU, AEBP2 / Fold change vs veh, AEBP2 / RFU, SNHG1 /// SNORD22 /// SNORD25 /// SNORD26 /// SNORD27 /// SNORD28 /// SNORD29 /// SNORD31 / Fold change vs veh, SNHG1 /// SNORD22 /// SNORD25 /// SNORD26 /// SNORD27 /// SNORD28 /// SNORD29 /// SNORD31 / Fold change (Aza/veh), C12orf56 (ProbeSet 11735607_a_at) / Fold change (ACY-1035/veh), C12orf56 (ProbeSet 11735607_a_at) / Fold change (Aza/veh), FGFR1OP (ProbeSet 11751329_s_at) / Fold change (ACY-1035/veh), FGFR1OP (ProbeSet 11751329_s_at) / Fold change (Aza/veh), VPS36 (ProbeSet 11739960_a_at) / Fold change (ACY-1035/veh), VPS36 (ProbeSet 11739960_a_at) / RFU SYPL1 (11715823_x_at) / Fold change /veh SYPL1 (11715823_x_at) / RFU IGFBP7 (11715501_s_at) / Fold change /veh IGFBP7 (11715501_s_at) / RFU REEP3 (11722064_at) / Fold change /veh REEP3 (11722064_at) / RFU IGLL1 (11728026_x_at) / Fold change /veh IGLL1 (11728026_x_at): dose or concentration left out as unconfirmed
Settings: ProbeSet 11753623_s_at; LIST D

## Nc1ncn([C@@H]2O[C@H](CO)[C@@H](O)[C@H]2O)c(=O)n1 [azacitidine]
  RFU, LOC101060439 /// RAP1B: 283.36 RFU
